# The NIST ThermoML archive (doi:10.1016/j.fluid.2008.01.010)
# Numbers after ± are expanded uncertainties.
# Tests used:
# [1] = 298.15 K; 101.33 kPa; Liquid
# [2] = refractive index (Na D-line) (dimensionless); settings: 298.15 K; 101.33 kPa; Liquid; Standard Abbe refractometry
mass density [1] [kg/m3],refractive index [2],Compound
866.12 ± 0.67,1.3876 ± 0.0006,CC(=O)OCC(C)C [2-methylpropyl ethanoate]
1258.5 ± 0.6,1.4726 ± 0.0005,OCC(O)CO [glycerol]

Compound,mass density [1] [kg/m3],refractive index [2]
CC(C)CO [2-methyl-1-propanol],797.83 ± 0.48,1.3938 ± 0.0005
